Entries after “also recorded” stand apart in the source; their conditions may differ. Where two headings read alike, the source gives them in different places.
Legend:
JAK2 = JAK2 (Homo sapiens (Human), UniProt O60674); assay: JAK2 kinase assay (HTRF); assay type: biochemical; settings: ATP at Km (4 μM)
Experimental: (§1) Human baculovirus-expressed Janus kinase (JAK) 1, 2, 3 and tyrosin kinase (TYK) 2 were purchased from Carna Biosciences, Inc (#08-144, -045, -046, -147 resp.). All four purified enzymes contain only the catalytic domain. JAK1 (aa 850-1154) and TYK2 (aa 871-1187) are expressed with an N-terminally fused GST-tag, and JAK2 and JAK3 with an N-terminally fused His-tag. Inhibition of phosphorylation of a synthetic peptide was measured in an HTRF-based assay (CisBio #62TKOPEC). First, 75 nL of test compound solution (100% DMSO) was added to a white shallow 384-well plate (NUNC #264706) using a Labcyte ECHO 550 liquid handler. Thereafter, 1 μL of compound dilution buffer (50 mM HEPES, 0.05% bovine serum albumin) and 2 μL of TK solution (TK substrate-biotin in kinase buffer [1× enzymatic buffer from HTRFKinEASE TK kit, 1 mM DTT]) was added. Then, 5 μL kinase-ATP mix (prepared in kinase buffer) was added to the wells and the plates were incubated at RT for 20 (JAK2, 3 and TYK2) to 40 (JAK1) min. For all four kinases a concentration of ATP that corresponded to the Km for ATP was used. The final concentrations of buffers, substrate, kinase and ATP were: JAK1: 50 mM Hepes buffer pH 7.0, 0.01% BSA, 10 mM MgCl2, 1 mM DTT, 7 μM ATP, 50 nM SEB, 1 μM TK Substrate-Biotin and 5 ng/well JAK1; JAK2: 50 mM Hepes buffer pH 7.0, 0.01% BSA, 5 mM MgCl2, 1 mM DTT, 4 μM ATP, 1 μM TK Substrate-Biotin and 0.1 ng/well JAK2; JAK3: 50 mM Hepes buffer pH 7.0, 0.01% BSA, 5 mM MgCl2, 1 mM DTT, 2 μM ATP, 1 μM TK Substrate-Biotin and 0.3 ng/well JAK3; TYK2: 50 mM Hepes buffer pH 7.0, 0.01% BSA, 5 mM MgCl2, 1 mM DTT, 13 μM ATP, 50 nM SEB, 1 μM TK Substrate-Biotin and 0.8 ng/well TYK2. Thereafter, the kinase reaction was stopped by adding 4 μL detection mix (final concentrations: 50 mM Hepes buffer pH 7.0, 0.01% BSA, 0.8 M KF, 20 mM EDTA, 42 nM Streptavidin-XL665 and 1:400 STK Ab Cryptate) and the plates were incubated overnight in the dark. A PerkinElmer Envision reader was used to quantify the HTRF signal using the following filters; 320 nm excitation filter, 665 nm emission filter and a 615 nm 2nd emission filter. A ratio ((665/615)×10^4) was calculated for each well.

CYP3A4 gene expression = assay: CYP induction, CYP3A4 mRNA expression; assay type: in vitro ADME
Experimental: (§2) Reversible CYP inhibition, time dependent CYP inhibition (TDI) and CYP induction was tested at Cyprotex PLC according to authority guidance.
Induction of CYP1A2, CYP2B6 and CYP3A4 gene expression can serve as sensitive representative endpoints for activation of aryl hydrocarbon receptor (AhR), […], respectively. Induction of these nuclear receptors was assessed by measuring the increase in mRNA encoding for […], respectively, at relevant concentrations.
A >2-fold shift indicate CYP Induction.

CYP2C19 = CYP2C19 (Homo sapiens (Human), UniProt P33261); assay: Reversible CYP inhibition, 2C19; assay type: in vitro ADME; settings: up to 50 μM for Example 3, up to 25 μM for Examples 644 and 641
Chain of CYP2C19 (P33261 whole entry): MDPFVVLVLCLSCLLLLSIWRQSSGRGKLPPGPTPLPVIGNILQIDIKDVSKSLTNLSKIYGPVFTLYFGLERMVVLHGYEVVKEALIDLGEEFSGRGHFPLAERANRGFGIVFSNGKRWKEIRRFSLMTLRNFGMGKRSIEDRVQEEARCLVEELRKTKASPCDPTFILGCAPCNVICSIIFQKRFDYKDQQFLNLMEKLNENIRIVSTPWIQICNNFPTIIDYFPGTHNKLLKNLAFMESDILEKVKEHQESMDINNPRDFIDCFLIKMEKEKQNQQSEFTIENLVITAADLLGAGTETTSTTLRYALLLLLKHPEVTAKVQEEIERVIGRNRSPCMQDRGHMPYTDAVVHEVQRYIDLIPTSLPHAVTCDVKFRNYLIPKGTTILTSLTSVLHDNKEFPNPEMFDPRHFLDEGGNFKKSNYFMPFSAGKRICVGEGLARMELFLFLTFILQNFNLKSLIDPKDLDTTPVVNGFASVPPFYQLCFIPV
Experimental: as §2

JAK3 = JAK3 (Homo sapiens (Human), UniProt P52333); assay: JAK3 kinase assay (HTRF); assay type: biochemical
Chain of JAK3 (P52333 822-1111): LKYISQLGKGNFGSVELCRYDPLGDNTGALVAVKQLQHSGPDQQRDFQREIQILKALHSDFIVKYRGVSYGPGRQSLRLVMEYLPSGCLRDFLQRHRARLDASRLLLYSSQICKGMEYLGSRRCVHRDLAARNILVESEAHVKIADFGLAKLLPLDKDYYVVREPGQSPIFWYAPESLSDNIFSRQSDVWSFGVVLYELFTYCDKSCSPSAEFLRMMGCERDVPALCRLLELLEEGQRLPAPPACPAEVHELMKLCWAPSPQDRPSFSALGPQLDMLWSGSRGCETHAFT
Experimental: as §1

[1] = molecular target: panel of 23 Tyrosine kinases, including JAK1, and 68 Serine and Threonine kinases; assay: Kinase selectivity panel at CARNA Biosciences; assay type: biochemical; settings: inhibitor concentration approximately 1000 times JAK1 EC50
Experimental: The kinase selectivity profiles of Example 3 of the present invention as well as Examples 644 and 641 of WO2011086053 were evaluated at CARNA Biosciences Inc. with a panel consisting of 23 Tyrosine kinases, including JAK1 (ABL, CSK, EGFR, EPHA2, EPHB1, EPHB4, FGFR1, FLT3, IGF1R, ITK, JAK1, JAK3, KDR, […], PDGFRα, PDGFRβ, PYK2, SRC, TIE2, TRKA and TYRO3) as well as 68 Serine and Threonine kinases ([…], AKT1, AMPKα1/β1/γ1, AurA, AurB, AurC, BRSK2 ([ATP]=Km value), CaMK1a ([ATP]=Km value), CaMK2a ([ATP]=Km value), CaMK4, CDC2/CycB1, CDC7/ASK, CDK2/CycA2, CDK2/CyE1, CDK3/CyE1 ([ATP]=Km value), CDK4/CyD3, CDK6/CyD3, CDK7/CycH/MAT1, CDK9/CycT1, CHK1, CK1ε, CK2α1/β, CK2α2/β, CLK1, CLK2, DAPK1, DYRK1B, Erk2, GSK3α, GSK3β, HGK, IKKβ, IRAK4 ([ATP]=Km value), JNK2, LOK ([ATP]=Km value), MAPKAP2, MLK1, MLK2, MNK2 ([ATP]=Km value), MST1, MST2 ([ATP]=Km value), NEK1, NEK2, NEK6, NEK7, NEK9, p38α, p70S6K, PAK1 ([ATP]=Km value), PAK2, PAK5 ([ATP]=Km value), PBK, PDK1, PIM1, PIM2, PKACα, PKCα, OKD2, PKN1 ([ATP]=Km value), PLK1, PLK2 ([ATP]=Km value), ROCK1, RSK1, SGK, skMLCK ([ATP]=Km value) and TSSK1). […] The percentage of inhibition was measured at an inhibitor concentration of approximately 1000 times JAK1 EC50.

TYK2 = TYK2 (Homo sapiens (Human), UniProt P29597); assay: TYK2 kinase assay (HTRF); assay type: biochemical
Chain of TYK2 (P29597 871-1187): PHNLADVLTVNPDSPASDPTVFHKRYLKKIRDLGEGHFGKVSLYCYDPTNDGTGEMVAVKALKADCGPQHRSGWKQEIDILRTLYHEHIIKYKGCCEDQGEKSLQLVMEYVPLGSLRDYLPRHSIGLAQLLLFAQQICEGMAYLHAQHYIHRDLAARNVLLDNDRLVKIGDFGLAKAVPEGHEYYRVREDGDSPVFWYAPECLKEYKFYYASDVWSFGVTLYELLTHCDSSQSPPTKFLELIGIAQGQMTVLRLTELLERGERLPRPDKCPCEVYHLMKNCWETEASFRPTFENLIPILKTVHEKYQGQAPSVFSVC
Experimental: as §1

CYP1A2 = CYP1A2 (Homo sapiens (Human), UniProt P05177); assay: Reversible CYP inhibition, 1A2; assay type: in vitro ADME
Chain of CYP1A2 (P05177 whole entry): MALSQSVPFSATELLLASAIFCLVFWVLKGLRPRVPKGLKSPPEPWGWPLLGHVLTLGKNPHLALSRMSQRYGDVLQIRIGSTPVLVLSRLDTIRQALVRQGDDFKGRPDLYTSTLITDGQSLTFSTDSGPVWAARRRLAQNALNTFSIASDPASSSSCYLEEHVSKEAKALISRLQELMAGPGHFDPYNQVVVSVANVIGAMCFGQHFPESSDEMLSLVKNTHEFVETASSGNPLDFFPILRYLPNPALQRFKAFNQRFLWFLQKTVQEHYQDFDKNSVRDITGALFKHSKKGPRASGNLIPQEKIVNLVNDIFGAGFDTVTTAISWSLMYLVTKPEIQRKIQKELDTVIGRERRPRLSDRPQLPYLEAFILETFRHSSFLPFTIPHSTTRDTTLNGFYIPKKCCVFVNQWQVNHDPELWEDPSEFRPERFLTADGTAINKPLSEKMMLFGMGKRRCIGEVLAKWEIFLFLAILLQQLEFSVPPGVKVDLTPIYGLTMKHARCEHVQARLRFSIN
Experimental: as §2

[2] = reversible, up to 50 μM for Example 3, up to 25 μM for Examples 644 and 641, read-out: 1A2 IC50

Chain of JAK2 (O60674 849-1124): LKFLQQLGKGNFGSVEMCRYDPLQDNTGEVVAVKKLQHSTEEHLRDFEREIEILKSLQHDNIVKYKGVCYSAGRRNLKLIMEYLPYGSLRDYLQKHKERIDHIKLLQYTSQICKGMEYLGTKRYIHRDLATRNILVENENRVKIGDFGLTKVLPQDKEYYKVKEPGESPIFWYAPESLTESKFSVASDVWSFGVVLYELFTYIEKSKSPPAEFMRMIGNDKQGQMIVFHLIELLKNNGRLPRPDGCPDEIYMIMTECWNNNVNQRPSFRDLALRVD

## C[C@@H](O)c1nc2cnc3[nH]ccc3c2n1[C@H]1CC[C@H](CC#N)CC1 [Example 644 of WO2011086053]
JAK2
  EC50: 3.34 nM
CYP3A4 gene expression
  CYP3A4 induction (in words): causes CYP3A4 induction at a concentration of 10 μM
CYP2C19
  IC50: > 25 µM
JAK3; ATP at Km (2 μM)
  EC50: 13.1 nM
[1]
  Kinases of the panel inhibited by 50% or more (summary): inhibited nine other kinases besides JAK1 by 50% or more
  Serine and Threonine kinases inhibited by 50% or more (n ≥ 2): BRSK2, [ATP] = 50 μM; also recorded: LOK, [ATP] = 100 μM; also recorded: MST2, [ATP] = 75 μM; also recorded: PKN1, [ATP] = 25 μM
  Tyrosine kinases inhibited by 50% or more at an ATP concentration of 1 mM (n ≥ 2): JAK1 and FGFR1 and FLT3 and KDR and PDGFRα and PDGFRβ
TYK2; ATP at Km (13 μM)
  EC50: 3.32 nM
CYP1A2; [2]
  IC50: > 25 µM

## C[C@@H](O)c1nc2cnc3[nH]ccc3c2n1[C@H]1CC[C@H](C#N)CC1 [Example 641 of WO2011086053]
JAK2
  EC50: 228 nM
CYP3A4 gene expression
  CYP3A4 induction (in words): causes CYP3A4 induction at a concentration of 20 μM and above
CYP2C19
  IC50: > 25 µM
JAK3
  EC50: 739 nM
[1]
  Kinases of the panel inhibited by 50% or more (summary): inhibited nine other kinases besides JAK1 by 50% or more
  Serine and Threonine kinases inhibited by 50% or more (n ≥ 2): BRSK2, [ATP] = 50 μM; also recorded: LOK, [ATP] = 100 μM; also recorded: MST1, [ATP] = 1 mM; also recorded: MST2, [ATP] = 75 μM; also recorded: PKN1, [ATP] = 25 μM
  Tyrosine kinases inhibited by 50% or more at an ATP concentration of 1 mM (n ≥ 2): JAK1 and FGFR1 and FLT3 and KDR and PDGFRα
TYK2
  EC50: 115 nM
CYP1A2
  IC50: > 25 µM

## CNc1cc2c(cn1)nc([C@@H](C)O)n2[C@H]1CC[C@H](CC#N)CC1 [Example 3, trans-2-[4-[2-[(1R)-1-Hydroxyethyl]-6-(methylamino)imidazo[4,5-c]pyridin-1-yl]cyclohexyl]acetonitrile]
JAK2
  EC50: 171 nM
CYP3A4 gene expression
  CYP3A4 induction (in words): does not cause CYP3A4 induction up to at least a concentration of 50 μM
CYP2C19
  IC50: > 50 µM
JAK3; ATP at Km (2 μM)
  EC50: 1700 nM
[1]
  Kinases of the panel inhibited by 50% or more (summary): none of the tested kinases except JAK1 were inhibited by more than 50%
  Tyrosine kinases inhibited by 50% or more at an ATP concentration of 1 mM (n ≥ 2): JAK1
TYK2; ATP at Km (13 μM)
  EC50: 32 nM
CYP1A2; [2]
  IC50: > 50 µM

— patent US10703751B2, “Amino-imidazopyridine derivatives as Janus kinase inhibitors and pharmaceutical use thereof” (LEO Pharma A/S, priority 2017, dated 2020)
